From the NIST ThermoML archive (doi:10.1016/j.jct.2008.05.014)

Assay: xn = mol fraction of the nth substance listed
Settings: Liquid; for speed of sound: Pulse-echo method

CCCCCCCCCCCC [dodecane] + CCCCCCC
Settings | mass density [kg/m3] | speed of sound [m/s]
298.15 K, 91180 kPa, x2 = 0.5003 | – | 1642.1
298.15 K, 101320 kPa, x2 = 0.1014 | – | 1704.4
298.15 K, 101320 kPa, x2 = 0.4999 | – | 1676
298.15 K, 101320 kPa, x2 = 0.5003 | – | 1676.4
298.16 K, 101 kPa, x2 = 0 | – | 1278.9
298.16 K, 101 kPa, x2 = 0.3002 | – | 1246.5
298.16 K, 101 kPa, x2 = 0.3996 | 726.184 | –
298.16 K, 101 kPa, x2 = 0.6 | 713.735 | 1205.1
298.16 K, 101 kPa, x2 = 0.8995 | – | 1151.9
298.16 K, 15200 kPa, x2 = 0 | – | 1365.9
298.16 K, 15200 kPa, x2 = 0.3007 | – | 1336
298.16 K, 15200 kPa, x2 = 0.4999 | – | 1314.6
298.16 K, 15200 kPa, x2 = 0.7007 | – | 1286.6
298.16 K, 30390 kPa, x2 = 0 | – | 1440
298.16 K, 30390 kPa, x2 = 0.3007 | – | 1413
298.16 K, 30390 kPa, x2 = 0.7007 | – | 1368.2
298.16 K, 45580 kPa, x2 = 0 | – | 1507
298.16 K, 45590 kPa, x2 = 0.3007 | – | 1481.9
298.16 K, 60790 kPa, x2 = 0 | – | 1568
298.16 K, 75990 kPa, x2 = 0 | – | 1625.2
298.16 K, 75990 kPa, x2 = 0.3007 | – | 1602.7
298.16 K, 91180 kPa, x2 = 0 | – | 1677.7
298.16 K, 91180 kPa, x2 = 0.3007 | – | 1656.7
298.16 K, 91180 kPa, x2 = 0.7007 | – | 1623.2
298.16 K, 101320 kPa, x2 = 0 | – | 1711.1
298.16 K, 101320 kPa, x2 = 0.3007 | – | 1690.7
298.16 K, 101320 kPa, x2 = 0.7007 | – | 1658.1
298.17 K, 101 kPa, x2 = 0.7002 | – | 1188.8
298.17 K, 101 kPa, x2 = 0.8 | – | 1171.2
298.17 K, 15200 kPa, x2 = 0.1014 | – | 1356.6
298.17 K, 15200 kPa, x2 = 0.8496 | – | 1264.5
298.17 K, 30390 kPa, x2 = 0.8496 | – | 1348.6
298.17 K, 45590 kPa, x2 = 0.8496 | – | 1422.9
298.17 K, 60790 kPa, x2 = 0.8496 | – | 1489.9
298.17 K, 75990 kPa, x2 = 0.8496 | – | 1551
298.17 K, 91180 kPa, x2 = 0.8496 | – | 1608.3
298.17 K, 101320 kPa, x2 = 0.8496 | – | 1644.1
298.18 K, 101 kPa, x2 = 0.1007 | – | 1268.9
298.18 K, 101 kPa, x2 = 0.3996 | – | 1233.8
298.18 K, 101 kPa, x2 = 0.5002 | – | 1219.9
298.18 K, 30390 kPa, x2 = 0.1014 | – | 1431.7
298.19 K, 101 kPa, x2 = 0.2001 | – | 1258.1
303.12 K, 15200 kPa, x2 = 0.9391 | – | 1228.3
303.12 K, 30390 kPa, x2 = 0.9391 | – | 1315.5
303.12 K, 30390 kPa, x2 = 0.97 | – | 1312
303.12 K, 45590 kPa, x2 = 0.9391 | – | 1392
303.12 K, 45590 kPa, x2 = 0.97 | – | 1388.9
303.12 K, 60790 kPa, x2 = 0.9391 | – | 1461.1
303.12 K, 60790 kPa, x2 = 0.97 | – | 1458.4
303.12 K, 75990 kPa, x2 = 0.9391 | – | 1523.8
303.12 K, 75990 kPa, x2 = 0.97 | – | 1521.5
303.12 K, 91180 kPa, x2 = 0.9391 | – | 1582
303.12 K, 91180 kPa, x2 = 0.97 | – | 1579.9
303.12 K, 101320 kPa, x2 = 0.9391 | – | 1618.9
303.12 K, 101320 kPa, x2 = 0.97 | – | 1616.9
303.13 K, 15200 kPa, x2 = 0.97 | – | 1224
303.13 K, 101320 kPa, x2 = 0.1014 | – | 1691.2
303.13 K, 101320 kPa, x2 = 0.5003 | – | 1663
303.14 K, 101 kPa, x2 = 0.6 | – | 1184.8
303.14 K, 101 kPa, x2 = 0.8995 | – | 1130.7
303.14 K, 15200 kPa, x2 = 0.1014 | – | 1339.1
303.14 K, 15200 kPa, x2 = 0.4999 | – | 1296.5
303.14 K, 30390 kPa, x2 = 0 | – | 1423.8
303.14 K, 30390 kPa, x2 = 0.1014 | – | 1415.2
303.14 K, 30390 kPa, x2 = 0.4999 | – | 1376.6
303.14 K, 30390 kPa, x2 = 0.5003 | – | 1376.5
303.14 K, 45590 kPa, x2 = 0 | – | 1491.4
303.14 K, 45590 kPa, x2 = 0.1014 | – | 1483.5
303.14 K, 45590 kPa, x2 = 0.3007 | – | 1466.1
303.14 K, 45590 kPa, x2 = 0.4999 | – | 1448
303.14 K, 45590 kPa, x2 = 0.5003 | – | 1448.1
303.14 K, 60790 kPa, x2 = 0 | – | 1553.1
303.14 K, 60790 kPa, x2 = 0.1014 | – | 1545.7
303.14 K, 60790 kPa, x2 = 0.4999 | – | 1512.9
303.14 K, 60790 kPa, x2 = 0.5003 | – | 1513
303.14 K, 60790 kPa, x2 = 0.7007 | – | 1491.3
303.14 K, 75990 kPa, x2 = 0 | – | 1610.9
303.14 K, 75990 kPa, x2 = 0.1014 | – | 1603.8
303.14 K, 75990 kPa, x2 = 0.4999 | – | 1572.4
303.14 K, 75990 kPa, x2 = 0.5003 | – | 1572.6
303.14 K, 75990 kPa, x2 = 0.7007 | – | 1552
303.14 K, 91180 kPa, x2 = 0 | – | 1664.1
303.14 K, 91180 kPa, x2 = 0.1014 | – | 1657.4
303.14 K, 91180 kPa, x2 = 0.3007 | – | 1642.8
303.14 K, 91180 kPa, x2 = 0.4999 | – | 1627.9
303.14 K, 91180 kPa, x2 = 0.5003 | – | 1628.3
303.14 K, 91180 kPa, x2 = 0.7007 | – | 1609.1
303.14 K, 101320 kPa, x2 = 0 | – | 1697.4
303.14 K, 101320 kPa, x2 = 0.3007 | – | 1677
303.14 K, 101320 kPa, x2 = 0.4999 | – | 1662.6
303.14 K, 101320 kPa, x2 = 0.7007 | – | 1644.6
303.15 K, 101 kPa, x2 = 0 | 741.636 | 1259.3
303.15 K, 101 kPa, x2 = 0.0991 | 737.456 | –
303.15 K, 101 kPa, x2 = 0.2008 | 732.789 | –
303.15 K, 101 kPa, x2 = 0.2998 | 727.833 | –
303.15 K, 101 kPa, x2 = 0.3002 | – | 1226.7
303.15 K, 101 kPa, x2 = 0.7002 | – | 1168.2
303.15 K, 101 kPa, x2 = 0.7005 | 702.52 | –
303.15 K, 101 kPa, x2 = 0.7995 | 694.549 | –
303.15 K, 101 kPa, x2 = 0.8486 | 690.238 | –
303.15 K, 101 kPa, x2 = 0.8988 | 685.588 | –
303.15 K, 101 kPa, x2 = 0.9498 | 680.563 | –
303.15 K, 15200 kPa, x2 = 0 | – | 1348.5
303.15 K, 15200 kPa, x2 = 0.3007 | – | 1317.9
303.15 K, 15200 kPa, x2 = 0.5003 | – | 1296.5
303.15 K, 15200 kPa, x2 = 0.7007 | – | 1268.1
303.15 K, 30390 kPa, x2 = 0.3007 | – | 1396
303.15 K, 30390 kPa, x2 = 0.7007 | – | 1351.3
303.15 K, 30390 kPa, x2 = 0.8496 | – | 1331.4
303.15 K, 45590 kPa, x2 = 0.7007 | – | 1425
303.15 K, 60790 kPa, x2 = 0.3007 | – | 1529.4
303.15 K, 75990 kPa, x2 = 0.3007 | – | 1588.1
303.15 K, 75990 kPa, x2 = 0.8496 | – | 1536.5
303.15 K, 91180 kPa, x2 = 0.8496 | – | 1594.2
303.15 K, 101320 kPa, x2 = 0.8496 | – | 1630.5
303.16 K, 101 kPa, x2 = 0.1007 | – | 1249.4
303.16 K, 101 kPa, x2 = 0.3996 | 722.389 | 1213.9
303.16 K, 101 kPa, x2 = 0.5 | 716.383 | –
303.16 K, 101 kPa, x2 = 0.5002 | – | 1199.8
303.16 K, 101 kPa, x2 = 0.6 | 709.824 | –
303.16 K, 101 kPa, x2 = 0.8 | – | 1150.3
303.16 K, 15200 kPa, x2 = 0.8496 | – | 1245.8
303.16 K, 45590 kPa, x2 = 0.8496 | – | 1406.8
303.16 K, 60790 kPa, x2 = 0.8496 | – | 1474.8
